# Measurements as given in ChEMBL document CHEMBL1136566, “Synthesis, opioid receptor binding, and functional activity of 5'-substituted 17-cyclopropylmethylpyrido[2',3':6,7]morphinans” (Bioorg Med Chem Lett, 2003).
# What was measured:
# [1] = Selectivity ratio was measured between kappa and delta opioid receptor
# [2] = molecular target: Delta-type opioid receptor (Rattus norvegicus, UniProt P33533); assay: Binding affinity to delta opioid receptor was measured using [3H]DADLE
# [3] = molecular target: Mu-type opioid receptor (Cavia porcellus) (UniProt P97266); assay: Antagonist potency against mu opioid receptor was measured in guinea-pig ileal longitudinal muscle using PL-017; assay type: functional
# [4] = molecular target: T1, Kappa-type opioid receptor (Cavia porcellus, UniProt P41144); assay: Binding affinity for kappa opioid receptor was measured using [3H]U-69593
# [5] = molecular target: Opioid receptors; mu & delta (Rattus norvegicus) (UniProt P33533+P33535); assay: Selectivity ratio was measured between mu and delta opioid receptor; assay type: protein assay
# [6] = molecular target: Delta-type opioid receptor (Mus musculus) (UniProt P32300); assay: Antagonist potency against delta opioid receptor was measured in mouse vas-deferens using DPDPE; assay type: functional
# [7] = Selectivity ratio between delta and mu opioid receptor in corresponding mouse vas-deferens and guinea-pig ileal longitudinal muscle; assay type: functional
# Mu-type opioid receptor [8] = molecular target: Mu-type opioid receptor (Rattus norvegicus, UniProt P33535); assay: Binding affinity to mu opioid receptor was measured using [3H]DAMGO
# [9] = molecular target: T1, Kappa-type opioid receptor; assay: Antagonist activity on agonist stimulated [35S]GTP-gamma-S, binding in guinea pig caudate membranes (10 uM U69,593 as the agonist ligand for kappa-receptor); assay type: functional, cell membranes
# Mu-type opioid receptor [10] = molecular target: T2, Mu-type opioid receptor (Cavia porcellus, UniProt P97266); assay: Antagonist activity on agonist stimulated [35S]GTP-gamma-S, binding in guinea pig caudate membranes (10 uM DAMGO as the agonist ligand for mu-receptor); assay type: functional, cell membranes
# Mu-type opioid receptor [11] = molecular target: T2, Mu-type opioid receptor; assay: Antagonist activity on agonist stimulated [35S]GTP-gamma-S, binding in guinea pig caudate membranes (10 uM DAMGO as the agonist ligand for Mu-receptor); assay type: functional, cell membranes
# T1 sequence (P41144 whole entry): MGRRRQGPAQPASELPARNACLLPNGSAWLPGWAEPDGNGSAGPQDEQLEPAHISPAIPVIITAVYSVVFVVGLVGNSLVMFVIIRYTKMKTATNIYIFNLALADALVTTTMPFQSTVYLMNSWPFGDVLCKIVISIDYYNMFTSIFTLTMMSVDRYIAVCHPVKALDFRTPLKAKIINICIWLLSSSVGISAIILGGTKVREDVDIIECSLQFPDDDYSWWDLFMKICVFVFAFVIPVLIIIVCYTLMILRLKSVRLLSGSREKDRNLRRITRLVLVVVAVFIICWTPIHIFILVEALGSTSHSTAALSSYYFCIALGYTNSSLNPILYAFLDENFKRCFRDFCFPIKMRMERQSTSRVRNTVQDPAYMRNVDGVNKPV
# Opioid receptors; mu & delta (Rattus norvegicus), sequence (P33533 whole entry, looked up): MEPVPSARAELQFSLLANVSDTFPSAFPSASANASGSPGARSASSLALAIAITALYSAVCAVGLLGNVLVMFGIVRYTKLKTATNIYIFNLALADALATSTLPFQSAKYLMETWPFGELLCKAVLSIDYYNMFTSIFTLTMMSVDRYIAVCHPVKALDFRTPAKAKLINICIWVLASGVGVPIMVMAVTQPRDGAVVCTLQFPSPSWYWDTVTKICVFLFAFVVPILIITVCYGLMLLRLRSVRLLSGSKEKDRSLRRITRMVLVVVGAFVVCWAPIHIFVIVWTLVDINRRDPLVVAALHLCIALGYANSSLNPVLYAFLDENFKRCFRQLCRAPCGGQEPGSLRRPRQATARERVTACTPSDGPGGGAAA
# Opioid receptors; mu & delta (Rattus norvegicus), sequence (P33535 whole entry, looked up): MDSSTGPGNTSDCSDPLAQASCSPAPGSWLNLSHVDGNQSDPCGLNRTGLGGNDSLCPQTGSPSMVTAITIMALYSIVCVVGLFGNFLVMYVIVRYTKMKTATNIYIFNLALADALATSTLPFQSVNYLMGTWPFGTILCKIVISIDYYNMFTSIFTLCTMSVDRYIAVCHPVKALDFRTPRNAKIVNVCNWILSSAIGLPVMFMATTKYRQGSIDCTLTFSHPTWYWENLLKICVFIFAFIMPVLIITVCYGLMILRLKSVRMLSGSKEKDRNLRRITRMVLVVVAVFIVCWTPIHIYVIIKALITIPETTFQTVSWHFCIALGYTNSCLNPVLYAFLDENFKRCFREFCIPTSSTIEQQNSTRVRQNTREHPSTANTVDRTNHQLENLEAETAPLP
# Delta-type opioid receptor, sequence (P33533 whole entry): as the sequence (P33533 whole entry, looked up) above
# Mu-type opioid receptor (Rattus norvegicus, UniProt P33535), sequence (P33535 whole entry): as the sequence (P33535 whole entry, looked up) above
# Mu-type opioid receptor (Cavia porcellus), sequence (P97266 whole entry): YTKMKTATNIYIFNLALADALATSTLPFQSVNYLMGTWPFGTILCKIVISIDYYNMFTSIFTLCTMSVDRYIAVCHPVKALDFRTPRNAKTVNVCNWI
# T2 sequence (P97266 whole entry): as above
# Delta-type opioid receptor (Mus musculus), sequence (P32300 whole entry): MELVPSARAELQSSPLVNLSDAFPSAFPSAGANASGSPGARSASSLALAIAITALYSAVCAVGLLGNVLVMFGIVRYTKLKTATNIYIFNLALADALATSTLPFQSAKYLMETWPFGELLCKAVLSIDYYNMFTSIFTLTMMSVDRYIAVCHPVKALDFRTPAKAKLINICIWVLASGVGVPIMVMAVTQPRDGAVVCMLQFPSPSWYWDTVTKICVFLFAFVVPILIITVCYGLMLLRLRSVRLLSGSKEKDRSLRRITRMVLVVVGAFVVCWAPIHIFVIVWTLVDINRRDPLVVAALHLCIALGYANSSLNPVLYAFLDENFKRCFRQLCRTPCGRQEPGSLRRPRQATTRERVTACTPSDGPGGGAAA
SMILES,Selectivity ratio [1],Ki [2],Ke [3],Ki [4],Selectivity ratio [5],Ke [6],Selectivity ratio [7],Ki (Mu-type opioid receptor [8]),Ki [9],Ki (Mu-type opioid receptor [10]),Ki (Mu-type opioid receptor [11])
Oc1ccc2c3c1O[C@H]1c4ncc(CNc5ccccc5)cc4C[C@@]4(O)[C@@H](C2)N(CC2CC2)CC[C@]314,10.6,1.8 nM,5.9 nM,19 nM,3.3,6.5 nM,0.9,6 nM,–,–,–
Oc1ccc2c3c1O[C@H]1c4ncc(NCc5ccccc5)cc4C[C@@]4(O)[C@@H](C2)N(CC2CC2)CC[C@]314,5.2,1.3 nM,5.9 nM,6.7 nM,11.5,6.5 nM,0.9,15 nM,–,–,–
Oc1ccc2c3c1O[C@H]1c4ncc(Br)cc4C[C@@]4(O)[C@@H](C2)N(CC2CC2)CC[C@]314,46,1.2 nM,36 nM,55.7 nM,12.9,3.6 nM,10,15.5 nM,–,–,–
N#Cc1cnc2c(c1)C[C@@]1(O)[C@H]3Cc4ccc(O)c5c4[C@@]1(CCN3CC1CC1)[C@H]2O5,7.5,4.5 nM,> 1000 nM,33.9 nM,3.6,44 nM,>22,16 nM,–,–,–
O=[N+]([O-])c1cnc2c(c1)C[C@@]1(O)[C@H]3Cc4ccc(O)c5c4[C@@]1(CCN3CC1CC1)[C@H]2O5,17,5.5 nM,200 nM,92 nM,3.2,53 nM,3.8,17.5 nM,–,–,–
CCOC(=O)c1cnc2c(c1)C[C@@]1(O)[C@H]3Cc4ccc(O)c5c4[C@@]1(CCN3CC1CC1)[C@H]2O5,–,–,–,–,–,–,4.4,–,–,–,–
Oc1ccc2c3c1O[C@H]1c4[nH]c5ccccc5c4C[C@@]4(O)[C@@H](C2)N(CC2CC2)CC[C@]314 [NALTRINDOLE],–,–,–,–,–,0.53 nM,–,–,6 nM,1.8 nM,–
N=C(N)Nc1cnc2c(c1)C[C@@]1(O)[C@H]3Cc4ccc(O)c5c4[C@@]1(CCN3CC1CC1)[C@H]2O5,0.037,18.7 nM,500 nM,0.7 nM,1.4,170 nM,–,26 nM,1 nM,–,6.1 nM
Oc1ccc2c3c1O[C@H]1c4[nH]c5c(c4C[C@@]4(O)[C@@H](C2)N(CC2CC2)CC[C@]314)C[C@@]1(O)[C@H]2Cc3ccc(O)c4c3[C@@]1(CCN2CC1CC1)[C@H]5O4 [NORBINALTORPHIMINE],–,–,–,–,–,–,–,–,0.12 nM,14.8 nM,–
Oc1ccc2c3c1O[C@H]1c4ncc(-n5cccc5)cc4C[C@@]4(O)[C@@H](C2)N(CC2CC2)CC[C@]314,19,0.64 nM,62 nM,12.2 nM,30,6.6 nM,–,19 nM,8.8 nM,–,4.2 nM
Nc1cnc2c(c1)C[C@@]1(O)[C@H]3Cc4ccc(O)c5c4[C@@]1(CCN3CC1CC1)[C@H]2O5,1.5,–,48 nM,–,1.6,25 nM,1.9,–,–,–,–
Oc1ccc2c3c1O[C@H]1c4ncccc4C[C@@]4(O)[C@@H](C2)N(CC2CC2)CC[C@]314,11,–,–,–,1.9,–,5.1,–,–,–,–
